Test [1] concerns the target T1, Kir6.1/SUR2B (Homo sapiens, UniProt O60706).
T1 construct: expressed in transfected cells; also transiently transfected HEK293T
In words: Thallium flux assay of Kir6.1/SUR2B in HEK293 cells. It is filed as cell-based. The following applies: for Kir6.1/SUR2B inhibition, SAR in words: modification of the right side thiophene. The source says: The pcDNA3.1-SUR2B plasmid was generously provided by Dr. Colin Nichols (Washington University). […] Stably transfected tetracycline-regulated expression human embryonic kidney-293 (T-Rex-HEK293) cells expressing both plasmids were generated by cotransfecting cells with Lipofectamine LTX followed by antibiotic selection and clonal selection using the thallium flux assay described below. […] The cell culture media contained Dulbecco's modified Eagle's medium (Gibco, 11965-092) supplied with heat-inactivated FBS (bio-techne, Minneapolis, MN […],10%), Blasticidine HCl (Gibco, A11139-03, 10 ug/mL), Penicillin-Streptomycin (Gibco, 15140-122, 2 mM), G418 Sulfate (CORNING, Corning, NY, 30-234-CR, 1 mg/mL), and Hygromycin B (Invitrogen, Carlsbad, CA, 10687-010, 250 ug/mL). For selectivity assays, HEK293T cells were cotransfected with Kir6.x and SURX with Lipofectamine LTX and incubated for 48 hours before thallium flux assays. […] [[…] et al., 2019]). […] Dye-loaded cells were washed with assay buffer and transferred to a Panoptic Kinetic Imaging Plate Reader (Wavefront Bioscience, Franklin, TN). Control and test compound treatments were for 4 minutes prior to adding 0.5 mM chloride-free thallium stimulus buffer (Ion Bioscience) to initiate thallium flux. […] Selectivity assays against other Kir channels were performed essentially as described previously ([[…] et al., 2018]; [[…] al., 2022]). […] Data were acquired using Panoptic Software, Waveguide (Wavefront Biosciences). Raw fluorescence values were imported for analysis into custom software (VICB, Vanderbilt University). Fluorescence versus time values for each well were normalized to the initial fluorescence value [F/F0]. […] CRC data were plotted in GraphPad Prism (GraphPad Software, San Diego, CA) and fitted with a four-parameter logistic model to determine IC50 values for rank-ordering hit potency.

The test system of test [2] is isolated mouse ductus arteriosus vessels. Briefly: Pressure myography of isolated ductus arteriosus vessels. As to conditions: term gestation mouse DA. As to the method:
CD-1 mice were maintained at Vanderbilt University Medical Center in accordance with protocols approved by the Institutional Animal Care and Use Committee. Timed matings were performed to produce offspring at specific stages of development. The presence of a vaginal plug was designated as embryonic day 1.
Term-gestation (embryonic day 19) fetal mouse DAs were isolated and mounted on glass pipet tips in microvessel perfusion chambers as previously reported ([Hooper et al., 2016]). Deoxygenated Krebs buffer was warmed to 37°C and circulated throughout the chamber. Vessels were pressurized in a stepwise manner to physiologic neonatal mouse mean arterial pressure (20 mmHg) and then challenged with 50 mM KCl to test reactivity. […] For dose-response studies, vessels were first dilated by circulating Krebs buffer bubbled with 95% nitrogen, 5% CO2 to mimic the hypoxic conditions of the womb. […] Following each dose, lumen diameters were allowed to plateau (approximately 20 minutes) before the next dose was added. Continuous lumen diameter measurements were recorded using a digital image capture system (IonOptix). An N of >6 vessels from at least three different litters was used for each experimental condition. Changes in lumen diameter are represented as the percent change in diameter compared with the baseline lumen diameter of vessels prior to drug exposure. […] Values represent mean ± S.D.

In test [3] the target is T2, Kir6.2/SUR1 (Homo sapiens, UniProt Q09428).
T2 construct: expressed in transfected cells; also transiently transfected HEK293T
T2 sequence (Q09428 whole entry, species assumed): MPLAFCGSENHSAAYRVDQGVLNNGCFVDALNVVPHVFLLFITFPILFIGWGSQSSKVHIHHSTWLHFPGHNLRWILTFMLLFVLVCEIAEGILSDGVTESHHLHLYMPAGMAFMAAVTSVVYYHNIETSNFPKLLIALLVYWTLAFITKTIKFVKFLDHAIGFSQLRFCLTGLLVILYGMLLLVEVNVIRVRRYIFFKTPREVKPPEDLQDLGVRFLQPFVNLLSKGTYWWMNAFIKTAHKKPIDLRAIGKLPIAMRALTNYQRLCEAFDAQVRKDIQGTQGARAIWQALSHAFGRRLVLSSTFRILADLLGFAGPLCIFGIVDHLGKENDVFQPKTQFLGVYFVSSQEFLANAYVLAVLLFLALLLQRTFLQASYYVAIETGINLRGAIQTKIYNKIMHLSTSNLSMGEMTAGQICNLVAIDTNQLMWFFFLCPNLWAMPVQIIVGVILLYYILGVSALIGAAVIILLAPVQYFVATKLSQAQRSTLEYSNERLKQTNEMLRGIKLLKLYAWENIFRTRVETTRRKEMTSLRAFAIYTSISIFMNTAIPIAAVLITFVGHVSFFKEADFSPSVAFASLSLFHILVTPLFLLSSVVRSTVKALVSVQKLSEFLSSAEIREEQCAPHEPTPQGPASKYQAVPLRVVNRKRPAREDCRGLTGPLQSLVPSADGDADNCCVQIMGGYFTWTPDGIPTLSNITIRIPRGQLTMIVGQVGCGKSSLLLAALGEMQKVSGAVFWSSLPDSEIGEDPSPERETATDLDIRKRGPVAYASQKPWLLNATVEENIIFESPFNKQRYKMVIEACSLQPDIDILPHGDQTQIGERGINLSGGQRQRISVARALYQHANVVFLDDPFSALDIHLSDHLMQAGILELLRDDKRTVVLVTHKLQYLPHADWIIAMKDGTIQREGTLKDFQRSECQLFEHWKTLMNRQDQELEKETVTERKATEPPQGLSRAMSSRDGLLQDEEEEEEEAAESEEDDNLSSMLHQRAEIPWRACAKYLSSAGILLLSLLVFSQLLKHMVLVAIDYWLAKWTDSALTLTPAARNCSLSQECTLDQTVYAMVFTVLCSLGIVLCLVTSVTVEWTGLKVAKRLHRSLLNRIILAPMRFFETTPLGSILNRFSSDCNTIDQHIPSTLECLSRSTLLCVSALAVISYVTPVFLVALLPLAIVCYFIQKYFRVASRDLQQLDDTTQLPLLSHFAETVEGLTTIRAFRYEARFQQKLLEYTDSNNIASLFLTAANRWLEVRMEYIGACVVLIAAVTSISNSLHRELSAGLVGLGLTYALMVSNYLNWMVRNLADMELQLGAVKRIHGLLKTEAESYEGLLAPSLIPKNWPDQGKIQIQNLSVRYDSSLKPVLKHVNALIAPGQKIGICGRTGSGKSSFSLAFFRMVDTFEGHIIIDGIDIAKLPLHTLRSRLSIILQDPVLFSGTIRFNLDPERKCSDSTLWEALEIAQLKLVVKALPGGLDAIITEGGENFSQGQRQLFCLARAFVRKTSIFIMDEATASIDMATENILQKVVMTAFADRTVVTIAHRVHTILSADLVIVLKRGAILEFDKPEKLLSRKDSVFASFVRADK
T2 sequence (Q14654 whole entry partner, species assumed): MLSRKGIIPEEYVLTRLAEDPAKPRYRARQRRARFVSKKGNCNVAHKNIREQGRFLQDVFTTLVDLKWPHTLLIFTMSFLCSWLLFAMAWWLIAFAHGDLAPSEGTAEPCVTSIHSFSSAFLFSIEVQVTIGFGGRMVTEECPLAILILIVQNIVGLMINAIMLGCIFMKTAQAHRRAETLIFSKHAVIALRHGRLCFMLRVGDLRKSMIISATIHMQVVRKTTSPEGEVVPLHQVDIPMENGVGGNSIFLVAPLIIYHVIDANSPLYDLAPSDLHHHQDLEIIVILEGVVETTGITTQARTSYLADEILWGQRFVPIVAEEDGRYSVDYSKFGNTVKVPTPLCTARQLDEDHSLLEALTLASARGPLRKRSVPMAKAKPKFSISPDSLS
In words: Thallium flux assay of Kir6.2/SUR1 in HEK293 cells. In kind it is cell-based. The following applies: T-Rex-HEK293-Kir6.2/SUR1 cells. As to the method: The pcDNA3.1-SUR2B plasmid was generously provided by Dr. Colin Nichols (Washington University). The pcDNA5/TO-Kir6.1 plasmid was synthesized by GenScript. […] For selectivity assays, HEK293T cells were cotransfected with Kir6.x and SURX with Lipofectamine LTX and incubated for 48 hours before thallium flux assays.
Stable T-Rex-HEK293-Kir6.1/SUR2B cells or transiently transfected HEK293T cells were plated in polyamine-coated, clear-bottomed, black-walled 384-well plates and were cultured (37°C/5% CO2) overnight in Dulbecco’s modified Eagle’s medium (Gibco, Carlsbad, CA, 11995-065) containing 10% FBS (2 mM Penicillin-Streptomycin). The following day, cells were washed with assay buffer (i.e., Hanks’ balanced salt solution/20 mM HEPES) and loaded for 1 hour with thallium sensor dye Brilliant Thallium (Ion Bioscience, San Marcos, TX) at room temperature. Dye-loaded cells were washed with assay buffer and transferred to a Panoptic Kinetic Imaging Plate Reader (Wavefront Bioscience, Franklin, TN). Control and test compound treatments were for 4 minutes prior to adding 0.5 mM chloride-free thallium stimulus buffer (Ion Bioscience) to initiate thallium flux.

Where [4] appears, read: pinacidil-activated, read-out: Kir6.1/SUR2B IC50.

Read-outs that look alike come from different tables or passages of the source.

These results are taken from PMC10877733, “Discovery and Characterization of VU0542270, the First Selective Inhibitor of Vascular Kir6.1/SUR2B KATP Channels” (Molecular Pharmacology, 2024).

T1 sequence (O60706 1-1549 isoform O60706-2, species assumed): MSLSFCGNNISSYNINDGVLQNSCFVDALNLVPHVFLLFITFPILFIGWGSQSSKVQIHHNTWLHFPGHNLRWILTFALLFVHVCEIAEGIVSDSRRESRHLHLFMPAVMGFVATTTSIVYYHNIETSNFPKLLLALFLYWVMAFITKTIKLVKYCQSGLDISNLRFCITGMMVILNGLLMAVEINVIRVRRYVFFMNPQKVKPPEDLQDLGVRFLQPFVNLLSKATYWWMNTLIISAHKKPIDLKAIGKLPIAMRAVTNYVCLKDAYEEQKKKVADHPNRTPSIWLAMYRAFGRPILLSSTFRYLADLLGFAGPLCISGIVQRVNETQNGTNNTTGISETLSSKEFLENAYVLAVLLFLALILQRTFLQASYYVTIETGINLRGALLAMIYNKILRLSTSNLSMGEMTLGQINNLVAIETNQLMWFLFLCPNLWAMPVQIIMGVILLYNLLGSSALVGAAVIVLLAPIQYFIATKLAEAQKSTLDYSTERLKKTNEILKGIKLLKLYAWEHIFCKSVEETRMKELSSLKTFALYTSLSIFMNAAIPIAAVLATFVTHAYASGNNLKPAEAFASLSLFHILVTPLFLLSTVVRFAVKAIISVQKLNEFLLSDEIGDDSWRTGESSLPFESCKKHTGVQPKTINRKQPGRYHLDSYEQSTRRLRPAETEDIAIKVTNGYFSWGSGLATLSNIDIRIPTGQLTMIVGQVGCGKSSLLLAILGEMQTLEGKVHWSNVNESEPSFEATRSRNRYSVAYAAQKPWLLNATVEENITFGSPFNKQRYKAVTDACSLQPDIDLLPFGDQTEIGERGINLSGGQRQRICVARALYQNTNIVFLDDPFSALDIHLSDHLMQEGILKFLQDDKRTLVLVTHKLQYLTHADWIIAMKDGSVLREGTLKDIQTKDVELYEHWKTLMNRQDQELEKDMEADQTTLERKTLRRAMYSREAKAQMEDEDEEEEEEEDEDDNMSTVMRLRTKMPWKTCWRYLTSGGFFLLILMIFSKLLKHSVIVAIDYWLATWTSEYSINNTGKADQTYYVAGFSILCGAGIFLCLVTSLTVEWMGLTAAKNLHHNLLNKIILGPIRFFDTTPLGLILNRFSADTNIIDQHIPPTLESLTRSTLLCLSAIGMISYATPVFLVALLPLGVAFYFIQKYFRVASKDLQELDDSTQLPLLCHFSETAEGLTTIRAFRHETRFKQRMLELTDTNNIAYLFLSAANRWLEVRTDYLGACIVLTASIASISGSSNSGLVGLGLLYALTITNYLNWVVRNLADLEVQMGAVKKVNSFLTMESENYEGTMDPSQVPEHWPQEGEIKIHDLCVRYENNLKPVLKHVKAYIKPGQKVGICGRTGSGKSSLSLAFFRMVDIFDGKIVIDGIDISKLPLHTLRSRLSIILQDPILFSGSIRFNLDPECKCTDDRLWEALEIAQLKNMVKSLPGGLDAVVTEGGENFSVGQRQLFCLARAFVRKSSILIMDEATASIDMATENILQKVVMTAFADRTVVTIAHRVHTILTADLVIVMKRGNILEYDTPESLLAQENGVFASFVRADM
T1 sequence (Q15842 whole entry partner, species assumed): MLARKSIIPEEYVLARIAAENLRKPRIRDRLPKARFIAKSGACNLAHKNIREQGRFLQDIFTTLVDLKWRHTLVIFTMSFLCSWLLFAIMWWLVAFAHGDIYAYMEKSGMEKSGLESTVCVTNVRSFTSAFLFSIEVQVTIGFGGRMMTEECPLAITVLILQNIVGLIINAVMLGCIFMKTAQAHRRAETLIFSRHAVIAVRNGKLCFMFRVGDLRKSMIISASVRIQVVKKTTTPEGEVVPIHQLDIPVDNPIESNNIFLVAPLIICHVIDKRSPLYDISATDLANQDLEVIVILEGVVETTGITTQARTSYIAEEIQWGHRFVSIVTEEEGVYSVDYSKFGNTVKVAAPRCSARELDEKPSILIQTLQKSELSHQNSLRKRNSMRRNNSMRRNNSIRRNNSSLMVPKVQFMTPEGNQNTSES

Take `Cc1nc(-c2ccccc2F)sc1CNC(=O)Nc1cccs1` [compound 5]: in test [1] (setting [4]), the IC50 amounted to 545 nM.
For `Cc1nc(-c2cccs2)sc1CNC(=O)Nc1cccnc1` [compound 6], the “Kir6.1/SUR2B inhibition, SAR in words” value in test [1] is “very weak”. Moreover, in test [1] (setting [4]), the IC50 amounted to 1620 nM.
On to `Cc1nc(-c2cccs2)sc1CNC(=O)Nc1ccncc1` [compound 7], for which the “Kir6.1/SUR2B inhibition, SAR in words” value in test [1] was “very weak”. Moreover, the IC50 in test [1] (setting [4]) was determined as 12600 nM.
As for `O=C(NCc1cc(-c2ccncc2)n(C2CCCC2)n1)Nc1cccs1` [compound 8], in test [1] (setting [4]), the IC50 came to 527 nM.
Same read-out and setting: next, `Cn1nc(CNC(=O)Nc2cccs2)cc1-c1ccncc1` [compound 9]: 6130 nM; `Cn1nc(CNC(=O)Nc2cccc(C(F)(F)F)c2)cc1-c1ccncc1` [compound 10]: 857 nM; `O=C(NCC1(c2ccc(F)cc2)CC1)Nc1cccs1` [compound 11]: 987 nM.
In the case of `Cn1nc(CNC(=O)Nc2cccs2)c2ccccc2c1=O` [compound 12], in test [1] (setting [4]), the IC50 turned out to be 780 nM.
In the case of `COc1ccc(Cl)cc1C(=O)NCCc1ccc(S(=O)(=O)NC(=O)NC2CCCCC2)cc1` [glibenclamide, reference compound], the IC50 in test [1] (transfected HEK-293 cells, pinacidil activation, read-out: Kir6.1/SUR2B IC50 (Fig. 4C)) stood at 115 nM. Also, the “ductus arteriosus vessel constriction” value in test [2] (increasing concentrations, compound alone) was “constricted in a concentration-dependent manner”. In addition, in test [2] (with 10 µM pinacidil), the “ductus arteriosus vessel constriction in the presence of pinacidil” value was “substantially blunted vasoconstrictive effects”.
For the molecule `CC(N/C(=N\C#N)Nc1ccncc1)C(C)(C)C` (centres unmarked) [pinacidil, reference compound], the “effect on Kir6.2/SUR1 thallium flux (opening)” value in test [3] is on record as “no effect”.
